# Measurements taken from US11453672B2, “Substituted pyrazolo[1,5-a]pyrimidines as tropomyosin receptor kinase inhibitors” (SHENZHEN TARGETRX, INC., priority 2017, dated 2022).
# Assays:
# [1] = Metabolic stability evaluation, human liver microsomes; type: in vitro ADME; details: pH 7.4, 1 μM compound, 0.5 mg/mL protein, 37° C.; for microsomal CLint at 1 μM: read-out: human liver microsome CLint; for half-life at 1 μM: read-out: human liver microsome t1/2
# Protocol: (§1) Microsomal experiments: human liver microsomes: 0.5 mg/mL, Xenotech; rat liver microsomes: 0.5 mg/mL, Xenotech; coenzyme (NADPH/NADH): 1 mM, Sigma Life Science; magnesium chloride: 5 mM, 100 mM phosphate buffer agent (pH 7.4).
# (§2) Preparation of the stock solution: A certain amount of the powder of the example compounds was accurately weighed and dissolved to 5 mM with DMSO.
# (§3) Preparation of phosphate buffer (100 mM, pH 7.4): 150 mL of pre-prepared 0.5 M potassium dihydrogen phosphate solution was mixed with 700 mL of pre-prepared 0.5 M dipotassium hydrogen phosphate solution, and the pH of the mixture was adjusted with 0.5 M dipotassium hydrogen phosphate solution to 7.4. It was diluted 5 times with ultrapure water before use, and magnesium chloride was added to obtain a phosphate buffer (100 mM) containing 100 mM potassium phosphate, 3.3 mM magnesium chloride, and a pH of 7.4.
# (§4) A solution of NADPH regeneration system (containing 6.5 mM NADP, 16.5 mM G-6-P, 3 U/mL G-6-P D, 3.3 mM magnesium chloride) was prepared and placed on wet ice before use.
# (§5) Preparation of stop solution: acetonitrile solution containing 50 ng/mL propranolol hydrochloride and 200 ng/mL tolbutamide (internal standard). 25057.5 μL of phosphate buffer (pH 7.4) was taken into a 50 mL centrifuge tube, 812.5 μL of human liver microsomes was added, and mixed uniformly to obtain a liver microsome dilution with a protein concentration of 0.625 mg/mL. 25057.5 μL of phosphate buffer (pH 7.4) was taken into a 50 mL centrifuge tube, and 812.5 μL of SD rat liver microsomes was added, and mixed uniformly to obtain a liver microsome dilution with a protein concentration of 0.625 mg/mL.
# (§6) Incubation of the sample: The stock solutions of the corresponding compounds were diluted to 0.25 mM as working solutions with an aqueous solution containing 70% acetonitrile before use. 398 μL of human liver microsomes or rat liver microsome dilutions were added to 96-well incubation plates (N=2), and 2 μL of 0.25 mM working solutions were added and mixed uniformly, respectively.
# (§7) Determination of metabolic stability: 300 μL of pre-cooled stop solution was added to each well of a 96-well deep well plate, which was placed on ice as a stop plate. The 96-well incubation plate and the NADPH regeneration system were placed in a 37° C. water bath, shaken at 100 rpm, and pre-incubated for 5 min. 80 μL of the incubation solution was removed from each well of the incubation plate, added to the stop plate, and mixed uniformly, and 20 μL of the NADPH regeneration system solution was supplemented as a sample at 0 min. Then, 80 μL of the NADPH regeneration system solution was added to each well of the incubation plate to start the reaction and the timing was started. […] 100 μL of the reaction solution was removed at 10, 30, and 90 min of the reaction, respectively, and added to the stop plate, and the reaction was terminated by vortexing for 3 min. The stop plate was centrifuged at 5000×g for 10 min at 4° C. 100 μL of the supernatant was removed into a 96-well plate to which 100 μL of distilled water was previously added, mixed uniformly, and sample analysis was performed by LC-MS/MS.
# (§8) Data analysis: The peak areas of the corresponding compounds and the internal standard were detected by LC-MS/MS system, and the ratios of the peak areas of the compounds to the internal standard were calculated.
# [2] = Metabolic stability evaluation, rat liver microsomes; type: in vitro ADME; details: SD, pH 7.4, 1 μM compound, 0.5 mg/mL protein, 37° C.; for microsomal CLint at 1 μM: read-out: rat liver microsome CLint; for half-life at 1 μM: read-out: rat liver microsome t1/2
# Protocol: as §1, §2, §3, §4, §5, §6, §7, §8
microsomal CLint at 1 μM [1],half-life at 1 μM [1],microsomal CLint at 1 μM [2],half-life at 1 μM [2],Compound
18.2 µL/min/mg,1.27 h,19.2 µL/min/mg,1.2 h,"[2H]C1([2H])C[C@H](O)C([2H])([2H])N1C(=O)Nc1cnn2ccc(N3CCC[C@@H]3c3cc(F)ccc3F)nc12 [Compound L-1, (S)—N-(5-((R)-2-(2,5-difluorophenyl)pyrrolidin-1-yl)-pyrazolo[1,5-a]pyrimidine-3-yl)-3-hydroxypyrrolidine-2,2,5,5-d4-1-carboxamide]"
21.3 µL/min/mg,1.08 h,31.7 µL/min/mg,1.06 h,"O=C(Nc1cnn2ccc(N3CCC[C@@H]3c3cc(F)ccc3F)nc12)N1CC[C@H](O)C1 [LOXO-101, (S)—N-(5-((R)-2-(2,5-difluorophenyl)-pyrrolidin-1-yl)pyrazolo[1,5-a]pyrimidin-3-yl)-3-hydroxypyrrolidine-1-carboxamide, reference compound]"
21 µL/min/mg,1.1 h,,,"[2H]C1([2H])C[C@H](c2cc(F)ccc2F)N(c2ccn3ncc(NC(=O)N4CC[C@H](O)C4)c3n2)C1 [Compound L-4, (S)—N-(5-((R)-2-(2,5-difluorophenyl)pyrrolidin-1-yl-4,4-d2)pyrazolo[1,5-a]pyrimidin-3-yl)-3-hydroxypyrrolidine-1-carboxamide]"

# The remaining lines, values behind:
Compound,microsomal CLint at 1 μM [1],half-life at 1 μM [1],microsomal CLint at 1 μM [2],half-life at 1 μM [2]
"[2H]C1([2H])CC([2H])([2H])[C@@]([2H])(c2cc(F)ccc2F)N1c1ccn2ncc(NC(=O)N3CC[C@H](O)C3)c2n1 [Compound L-7, (S)—N-(5-((R)-2-(2,5-difluorophenyl)pyrrolidin-1-yl-2,3,3,5,5-d2)pyrazolo[1,5-a]pyrimidin-3-yl)-3-hydroxypyrrolidine-1-carboxamide]",20.6 µL/min/mg,1.12 h,15.8 µL/min/mg,1.46 h
"[2H]C1([2H])C[C@H](O)C([2H])([2H])N1C(=O)Nc1cnn2ccc(N3CCC([2H])([2H])C3([2H])c3cc(F)ccc3F)nc12 (stereo in doubt) [Compound L-3, (S)—N-(5-((R)-2-(2,5-difluorophenyl)pyrrolidin-1-yl-2,3,3-d3)-pyrazolo[1,5-a]pyrimidin-3-yl)-3-hydroxypyrrolidine-2,2,5,5-d4-1-carboxamide]",19.1 µL/min/mg,1.21 h,16.8 µL/min/mg,1.38 h
